The nature of assay [1]: Antioxidant activity assessed as trolox equivalent of APPH-induced peroxyl radical scavenging activity at 1 uM measured every 2 mins by ORAC fluorescence assay. Type of assay: functional.
Assay [2] is described as follows: Antioxidant activity assessed as reduction of Cu2+ to Cu+ at 10 uM. The assay is classed as functional.
A short description of assay [3]: Antioxidant activity assessed as trolox equivalent of APPH-induced peroxyl radical scavenging activity measured every 2 mins by ORAC fluorescence assay. The assay is classed as functional.
The target of assay [4] is T1, Tartrate-resistant acid phosphatase type 5 (Mus musculus) (UniProt Q05117).
T1 sequence (whole entry): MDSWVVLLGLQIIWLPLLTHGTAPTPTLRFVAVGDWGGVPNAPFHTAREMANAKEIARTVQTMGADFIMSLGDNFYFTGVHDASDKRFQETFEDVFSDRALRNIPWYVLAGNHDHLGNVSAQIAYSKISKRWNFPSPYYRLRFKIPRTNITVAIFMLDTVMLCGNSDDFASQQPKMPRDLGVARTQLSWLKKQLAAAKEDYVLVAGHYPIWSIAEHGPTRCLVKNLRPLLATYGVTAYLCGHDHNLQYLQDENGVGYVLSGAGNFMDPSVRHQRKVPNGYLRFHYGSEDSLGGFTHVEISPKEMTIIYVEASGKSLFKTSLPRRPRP
Briefly: Inhibition of TRAP activity in RANKL-induced Balb/c mouse RAW264.7 cells at 1 uM after 1 hr by ELISA relative to control. Type of assay: cell-based. Background: In an ELISA, binding on a coated surface is turned into a signal by an enzyme label.

Assay [5] can be described thus: Antiosteoporotic activity in C57BL/6 mouse MC3T3-E1 cells assessed as increase in mineralization by measuring calcium deposition at 5 uM by Alizarin Red staining assay relative to control. Type of assay: functional.
A short description of assay [6]: Antiosteoporotic activity in alpha-MEM-induced C57BL/6 mouse MC3T3-E1 cells assessed as increase in mineralization by measuring calcium deposition at 5 uM by Alizarin Red staining assay relative to control. Type of assay: functional.
Assay [7] addresses T1, Tartrate-resistant acid phosphatase type 5 (Mus musculus). As to the kind of experiment: Inhibition of TRAP activity in RANKL-induced Balb/c mouse RAW264.7 cells at 10 uM after 1 hr by ELISA relative to control. Type of assay: cell-based.
Assay [8] can be described thus: Antiosteoporotic activity in alpha-MEM-induced C57BL/6 mouse MC3T3-E1 cells assessed as increase in collagen synthesis at 5 uM by Sirius Red-based colorimetric assay relative to control. The assay is classed as functional.
A short description of assay [9]: Antiosteoporotic activity in C57BL/6 mouse MC3T3-E1 cells assessed as increase in collagen synthesis at 5 uM by Sirius Red-based colorimetric assay relative to control. Type of assay: functional.
Assay [10] addresses T1, Tartrate-resistant acid phosphatase type 5 (Mus musculus). As to the kind of experiment: Inhibition of TRAP activity in Balb/c mouse RAW264.7 cells at 10 uM after 1 hr by ELISA relative to control. Type of assay: cell-based.

By inhibition is commonly meant the relative decrease from the control value, in per cent.

Turning to `C[C@@H]1O[C@@H](O[C@H]2[C@H](Oc3c(-c4ccc(O)c(O)c4)oc4cc(O)cc(O)c4c3=O)O[C@H](CO)[C@H](O)[C@@H]2O)[C@H](O)[C@H](O)[C@H]1O`, the Activity in [1] is 3.36 µM; in [2] it was 19.4 µM; in assay [3], “Dose-dependent effect”; in assay [5], 176.44%; in [6] it was 104.72%; in [8], 96.59%. Besides, in assay [9], the Activity is given as 224.92%. Moreover, the inhibition in assay [4] was determined as 101%. In assay [7], the TRAP activity (% of control) is 128%.
As to `Oc1cc(O)c2c(c1)O[C@@]1(c3ccc(O)c(O)c3)O[C@H]1[C@@H]2c1c(O)cc(O)c2c1O[C@H](c1ccc(O)c(O)c1)[C@H](O)C2`, the Activity was 5.22 µM in assay [1]; 34.7 µM in [2]; “Dose-dependent effect” in assay [3]; 185.08% in assay [5]; 109.85% in assay [6]; 103.38% in assay [8]. The Activity in assay [9] stood at 240.74%. Moreover, the inhibition in [4] was found to be 98%. Moreover, the TRAP activity (% of control) in [7] was found to be 107%.
As to `C[C@@H]1O[C@@H](OC[C@H]2O[C@@H](Oc3c(-c4ccc(O)c(O)c4)oc4cc(O)cc(O)c4c3=O)[C@H](O)[C@@H](O)[C@@H]2O)[C@H](O)[C@H](O)[C@H]1O` [RUTIN], the Activity in assay [1] is 3.78 µM; in [2], 30.1 µM; in assay [3], “Dose-dependent effect”; in assay [5] it was 173.94%; in [6], 103.24%; in [8] it was 100.09%. Also, the Activity in assay [9] came out at 233.08%. Also, the results for the inhibition in [10] and in [4] were 146% and 78%, respectively. The TRAP activity (% of control) in assay [7] was found to be 71.7%.
On to `Oc1cc(O)c2c(c1)O[C@H](c1ccc(O)c(O)c1)[C@H](O)C2` [(-)-EPICATECHIN], for which the Activity is 4.49 µM in [1]; 25.7 µM in assay [2]; “Dose-dependent effect” in assay [3]; 188.57% in [5]; 111.92% in assay [6]; 105.69% in [8]. Further, the Activity in [9] turned out to be 246.13%. Also, the inhibition in assay [4] was 78.3%. Also, the TRAP activity (% of control) in assay [7] was determined as 84%.
With `O=c1c(O[C@@H]2O[C@H](CO)[C@@H](O)[C@H](O)[C@H]2O)c(-c2ccc(O)c(O)c2)oc2cc(O)cc(O)c12` [ISOQUERCETIN], the Activity in assay [1] was 4.4 µM; in assay [2], 21.3 µM; in assay [3], “Dose-dependent effect”; in assay [5] it was 181.25%; in [6] it was 107.58%; in assay [8], 112.49%. In addition, the Activity in assay [9] worked out at 261.95%. For the same molecule, in [4], the inhibition was found to be 76.6%. The TRAP activity (% of control) in assay [7] was 82.9%.
With `Oc1ccc([C@@]23Oc4cc(O)cc(O)c4[C@@H](c4c(O)cc(O)c5c4O[C@H](c4ccc(O)c(O)c4)[C@H](O)C5)[C@@H]2O3)cc1`, the Activity in assay [1] was 5.42 µM; in assay [2] it was 29.9 µM; in assay [3], “Dose-dependent effect”; in assay [5], 151.36%; in [6], 89.84%; in [8], 77.16%. Also, the Activity in [9] is on record as 179.68%. For the same molecule, the inhibition in [4] amounted to 78.5%. Besides, in assay [7], the TRAP activity (% of control) came to 85.6%.
